# Laboratory results from US10294202B2, “Pyrrolidinones as herbicides” (FMC Corporation, priority 2013, dated 2019).
# Columns and labels:
# giant foxtail = test: Test A pre-/postemergence herbicide test; format: in vivo, Setaria faberii; settings: for Plant response rating, Foxtail, Giant: 0 to 100 scale
# How it was run: (§1)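 Planted in loam–sand blend; treated the same day preemergence by directed soil spray, while separately grown plants at one- to two-leaf stage got postemergence spray. Compared visually with untreated controls after approximately 10 days; 100 means complete control.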
# blackgrass = test: Test A postemergence herbicide test; format: in vivo, Alopecurus myosuroides; settings: for Plant response rating, Blackgrass: 125 g ai/ha, 0 to 100 scale, 0 is no effect, 100 is complete control; for Blackgrass plant response rating (0 to 100 scale, 0 is no effect, 100 is complete control): 500 g ai/ha
# How it was run: (§2)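 Ratings compare treated with untreated plants roughly 10 days after a postemergence application made at the one- to two-leaf stage. Scoring uses 0–100, where 0 means no effect and 100 complete control.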
# ryegrass, Italian = test: Test A pre-/postemergence herbicide test; format: in vivo, Lolium multiflorum; settings: for Plant response rating, Ryegrass, Italian: 0 to 100 scale
# How it was run: as §1
# wheat = test: Test A pre-/postemergence herbicide test; format: in vivo, Triticum aestivum; settings: Postemergence; for Plant response rating, Wheat: 125 g ai/ha, 0 to 100 scale, 0 is no effect, 100 is complete control; for Wheat plant response rating (0 to 100 scale, 0 is no effect, 100 is complete control): 500 g ai/ha
# How it was run: as §1
# rice = test: Test B flooded paddy test; format: in vivo, Oryza sativa; settings: 1000 g ai/ha, Flood; scale of 0 to 100 where 0 is no effect and 100 is complete control
# How it was run: (§3)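 In-water application to pots flooded 3 cm deep, plants at 2-leaf stage. Held in greenhouse 13–15 days at constant flood depth. Scored 0–100 by eye against controls.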
# ducksalad = test: Test B flooded paddy test; format: in vivo, Heteranthera limosa; settings: 1000 g ai/ha, Flood; scale of 0 to 100 where 0 is no effect and 100 is complete control
# How it was run: as §3
# barnyardgrass [1] = test: Test A pre-/postemergence herbicide test; format: in vivo, Echinochloa crus-galli; settings: for Plant response rating, Barnyardgrass: 0 to 100 scale
# How it was run: as §1
# corn = test: Test A pre-/postemergence herbicide test; format: in vivo, Zea mays; settings: Postemergence; for Plant response rating, Corn: 125 g ai/ha, 0 to 100 scale, 0 is no effect, 100 is complete control; for Corn plant response rating (0 to 100 scale, 0 is no effect, 100 is complete control): 500 g ai/ha
# How it was run: as §1
# sedge, umbrella = test: Test B flooded paddy test; format: in vivo, Cyperus difformis; settings: 1000 g ai/ha, Flood; scale of 0 to 100 where 0 is no effect and 100 is complete control
# How it was run: as §3
# kochia = test: Test A pre-/postemergence herbicide test; format: in vivo, Kochia scoparia; settings: for Plant response rating, Kochia: 0 to 100 scale
# How it was run: as §1
# pigweed = test: Test A pre-/postemergence herbicide test; format: in vivo, Amaranthus retroflexus; settings: for Plant response rating, Pigweed: 0 to 100 scale
# How it was run: as §1
# ragweed = test: Test A pre-/postemergence herbicide test; format: in vivo, Ambrosia elatior; settings: for Plant response rating, Ragweed: 0 to 100 scale
# How it was run: as §1
# barnyardgrass [2] = test: Test B flooded paddy test; format: in vivo, Echinochloa crus-galli; settings: 1000 g ai/ha, Flood; scale of 0 to 100 where 0 is no effect and 100 is complete control
# How it was run: as §3
# galium = test: Test A postemergence herbicide test; format: in vivo, Galium aparine; settings: for Plant response rating, Galium: 125 g ai/ha, 0 to 100 scale, 0 is no effect, 100 is complete control; for Galium plant response rating (0 to 100 scale, 0 is no effect, 100 is complete control): 500 g ai/ha
# How it was run: as §2
# [3] = 125 g ai/ha, visual rating, 0 no effect, 100 complete control, approximately 10 days, preemergence
# [4] = Postemergence, 125 g ai/ha, 0 is no effect, 100 is complete control
# [5] = preemergence, 500 g ai/ha, 0 is no effect and 100 is complete control
structure (smiles),measurement,setting,value
COc1ccc(C2CNC(=O)C2C(=O)Nc2ccccc2F)cc1C(F)(F)F (racemic) [Compound 209],"Plant response rating, Foxtail, Giant",giant foxtail; [3],50
same,"Plant response rating, Foxtail, Giant",giant foxtail; [4],40
same,"Foxtail, Giant plant response rating (0 to 100 scale, 0 is no effect, 100 is complete control)","giant foxtail; Postemergence, 500 g ai/ha",70
same,"Plant response rating, Foxtail, Giant",giant foxtail; [5],90
same,"Plant response rating, Blackgrass",blackgrass,0
same,"Blackgrass plant response rating (0 to 100 scale, 0 is no effect, 100 is complete control)",blackgrass,20
same,"Plant response rating, Ryegrass, Italian","ryegrass, Italian; [3]",0
same,"Plant response rating, Ryegrass, Italian","ryegrass, Italian; [4]",0
same,"Ryegrass, Italian plant response rating (0 to 100 scale, 0 is no effect, 100 is complete control)","ryegrass, Italian; Postemergence, 500 g ai/ha",20
same,"Plant response rating, Ryegrass, Italian","ryegrass, Italian; [5]",20
same,"Plant response rating, Wheat",wheat,0
same,"Wheat plant response rating (0 to 100 scale, 0 is no effect, 100 is complete control)",wheat,0
same,"Plant response rating, Rice",rice,0
same,"Plant response rating, Ducksalad",ducksalad,95
same,"Plant response rating, Barnyardgrass",barnyardgrass [1]; [3],30
same,"Plant response rating, Barnyardgrass",barnyardgrass [1]; [4],60
same,"Barnyardgrass plant response rating (0 to 100 scale, 0 is no effect, 100 is complete control)","barnyardgrass [1]; Postemergence, 500 g ai/ha",80
same,"Plant response rating, Barnyardgrass",barnyardgrass [1]; [5],60
same,"Plant response rating, Corn",corn,0
same,"Corn plant response rating (0 to 100 scale, 0 is no effect, 100 is complete control)",corn,0
same,"Plant response rating, Sedge, Umbrella","sedge, umbrella",0
same,"Plant response rating, Kochia",kochia; [3],0
same,"Plant response rating, Kochia",kochia; [4],0
same,"Kochia plant response rating (0 to 100 scale, 0 is no effect, 100 is complete control)","kochia; Postemergence, 500 g ai/ha",0
same,"Plant response rating, Kochia",kochia; [5],20
same,"Plant response rating, Pigweed",pigweed; [3],0
same,"Plant response rating, Pigweed",pigweed; [4],0
same,"Pigweed plant response rating (0 to 100 scale, 0 is no effect, 100 is complete control)","pigweed; Postemergence, 500 g ai/ha",0
same,"Plant response rating, Pigweed",pigweed; [5],20
same,"Plant response rating, Ragweed",ragweed; [3],0
same,"Plant response rating, Ragweed",ragweed; [4],0
same,"Ragweed plant response rating (0 to 100 scale, 0 is no effect, 100 is complete control)","ragweed; Postemergence, 500 g ai/ha",0
same,"Plant response rating, Ragweed",ragweed; [5],0
same,"Plant response rating, Barnyardgrass",barnyardgrass [2],45
same,"Plant response rating, Galium",galium,0
same,"Galium plant response rating (0 to 100 scale, 0 is no effect, 100 is complete control)",galium,0
O=C1NCC(c2cccc(S(F)(F)(F)(F)F)c2)C1C(=O)Nc1ccccc1F (racemic) [Compound 213],"Plant response rating, Foxtail, Giant",giant foxtail; [3],80
same,"Plant response rating, Foxtail, Giant",giant foxtail; [4],80
same,"Foxtail, Giant plant response rating (0 to 100 scale, 0 is no effect, 100 is complete control)","giant foxtail; Postemergence, 500 g ai/ha",90
same,"Plant response rating, Foxtail, Giant",giant foxtail; [5],90
same,"Plant response rating, Blackgrass",blackgrass,50
same,"Blackgrass plant response rating (0 to 100 scale, 0 is no effect, 100 is complete control)",blackgrass,60
same,"Plant response rating, Ryegrass, Italian","ryegrass, Italian; [3]",0
same,"Plant response rating, Ryegrass, Italian","ryegrass, Italian; [4]",40
same,"Ryegrass, Italian plant response rating (0 to 100 scale, 0 is no effect, 100 is complete control)","ryegrass, Italian; Postemergence, 500 g ai/ha",50
same,"Plant response rating, Ryegrass, Italian","ryegrass, Italian; [5]",40
same,"Plant response rating, Wheat",wheat,0
same,"Wheat plant response rating (0 to 100 scale, 0 is no effect, 100 is complete control)",wheat,50
same,"Plant response rating, Rice",rice,0
same,"Plant response rating, Ducksalad",ducksalad,85
same,"Plant response rating, Barnyardgrass",barnyardgrass [1]; [3],50
same,"Plant response rating, Barnyardgrass",barnyardgrass [1]; [4],60
same,"Barnyardgrass plant response rating (0 to 100 scale, 0 is no effect, 100 is complete control)","barnyardgrass [1]; Postemergence, 500 g ai/ha",70
same,"Plant response rating, Barnyardgrass",barnyardgrass [1]; [5],80
same,"Plant response rating, Corn",corn,0
same,"Corn plant response rating (0 to 100 scale, 0 is no effect, 100 is complete control)",corn,50
same,"Plant response rating, Sedge, Umbrella","sedge, umbrella",0
same,"Plant response rating, Kochia",kochia; [3],0
same,"Plant response rating, Kochia",kochia; [4],0
same,"Kochia plant response rating (0 to 100 scale, 0 is no effect, 100 is complete control)","kochia; Postemergence, 500 g ai/ha",0
same,"Plant response rating, Kochia",kochia; [5],0
same,"Plant response rating, Pigweed",pigweed; [3],0
same,"Plant response rating, Pigweed",pigweed; [4],0
same,"Pigweed plant response rating (0 to 100 scale, 0 is no effect, 100 is complete control)","pigweed; Postemergence, 500 g ai/ha",0
same,"Plant response rating, Pigweed",pigweed; [5],0
same,"Plant response rating, Ragweed",ragweed; [3],0
same,"Plant response rating, Ragweed",ragweed; [4],0
same,"Ragweed plant response rating (0 to 100 scale, 0 is no effect, 100 is complete control)","ragweed; Postemergence, 500 g ai/ha",30
same,"Plant response rating, Ragweed",ragweed; [5],0
same,"Plant response rating, Barnyardgrass",barnyardgrass [2],60
same,"Plant response rating, Galium",galium,0
same,"Galium plant response rating (0 to 100 scale, 0 is no effect, 100 is complete control)",galium,0
